Test results as given in patent US9108944B2, “Androgen receptor modulators and uses thereof” (ARAGON PHARMACEUTICALS, INC., priority 2010, dated 2015).

Experiments:
AR-VP16 [1] = biological target: T1, AR-VP16 (Homo sapiens, UniProt P10275); assay: AR-VP16 DNA Binding Assay, antagonist mode (HepG2 cells, 0.1 nM R1881); assay type: cell-based
T1 sequence (P10275 560-920 limits assumed): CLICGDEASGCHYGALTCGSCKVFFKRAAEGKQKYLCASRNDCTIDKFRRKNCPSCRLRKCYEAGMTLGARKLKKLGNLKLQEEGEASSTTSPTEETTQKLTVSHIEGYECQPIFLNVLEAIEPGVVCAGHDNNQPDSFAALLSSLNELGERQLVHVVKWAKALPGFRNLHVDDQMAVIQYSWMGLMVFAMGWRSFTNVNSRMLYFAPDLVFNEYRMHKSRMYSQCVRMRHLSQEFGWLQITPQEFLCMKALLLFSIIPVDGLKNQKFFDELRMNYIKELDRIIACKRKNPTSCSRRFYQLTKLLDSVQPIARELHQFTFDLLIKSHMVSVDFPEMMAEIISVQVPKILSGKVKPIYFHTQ
Summary of the method: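 HepG2 cells transiently transfected with AR-VP16 (Lipofectin), incubated overnight, then treated with compound in RPMI with charcoal-stripped serum. Antagonist mode adds R1881 at 0.1 nM final. Cells lysed after 48 h incubation for read-out.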

AR-VP16 [2] = biological target: T1, AR-VP16; assay: AR-VP16 DNA Binding Assay, agonist mode (HepG2 cells); assay type: cell-based; details: Emax >20x DMSO control = agonist

SMILES	IC50 (AR-VP16 [1]) [µM]	ARVP16 DNA Binding Assay (Agonist mode): Agonist? (AR-VP16 [2])
Cc1cc(N2C(=O)C3(CCC3)N(c3ccc(O)c(F)c3)C2=S)cnc1C#N [Compound 54, 5-(5-(3-Fluoro-4-hydroxyphenyl)-8-oxo-6-thioxo-5,7-diazaspiro[3.4]octan-7-yl)-3-methylpicolinonitrile]	> 1	No (Agonist defined as a compound whose Emax in the ARVP16 DNA Binding Assay (Agonist mode) is >20x DMSO control)
N#Cc1ncc(N2C(=O)C3(CCC3)N(c3cccc(-c4ccccc4)c3)C2=S)cc1C(F)(F)F [Compound 14, 5-(5-([1,1′-Biphenyl]-3-yl)-8-oxo-6-thioxo-5,7-diazaspiro[3.4]octan-7-yl)-3-(trifluoromethyl)picolinonitrile]	> 1	No (Agonist defined as a compound whose Emax in the ARVP16 DNA Binding Assay (Agonist mode) is >20x DMSO control)
CCOC(=O)c1ccc(N2C(=S)N(c3cnc(C#N)c(C(F)(F)F)c3)C(=O)C23CCC3)cc1F [Compound 3, Ethyl 4-(7-(6-cyano-5-(trifluoromethyl)pyridin-3-yl)-8-oxo-6-thioxo-5,7-diazaspiro[3.4]octan-5-yl)-2-fluorobenzoate]	> 1	No (Agonist defined as a compound whose Emax in the ARVP16 DNA Binding Assay (Agonist mode) is >20x DMSO control)
N#Cc1ncc(N2C(=O)C3(CCC3)N(c3cccc(F)c3F)C2=S)cc1C(F)(F)F [Compound 72, 5-(5-(2,3-Difluorophenyl)-8-oxo-6-thioxo-5,7-diazaspiro[3.4]octan-7-yl)-3-(trifluoromethyl)picolinonitrile]	< 1	Yes (Agonist defined as a compound whose Emax in the ARVP16 DNA Binding Assay (Agonist mode) is >20x DMSO control)
Cc1cc(N2C(=O)C3(CCC3)N(c3ccc(OC4CCN(CCO)CC4)cc3)C2=S)cnc1C#N [Compound 217, 5-(5-(4-((1-(2-Hydroxyethyl)piperidin-4-yl)oxy)phenyl)-8-oxo-6-thioxo-5,7-diazaspiro[3.4]octan-7-yl)-3-methylpicolinonitrile]	< 1	No (Agonist defined as a compound whose Emax in the ARVP16 DNA Binding Assay (Agonist mode) is >20x DMSO control)
Cc1cc(N2C(=O)C3(CCC3)N(c3ccc(C(=O)Nc4ccc(Cl)cc4)c(F)c3)C2=S)cnc1C#N [Compound 296, N-(4-Chlorophenyl)-4-(7-(6-cyano-5-methylpyridin-3-yl)-8-oxo-6-thioxo-5,7-diazaspiro[3.4]octan-5-yl)-2-fluorobenzamide]	< 1	No (Agonist defined as a compound whose Emax in the ARVP16 DNA Binding Assay (Agonist mode) is >20x DMSO control)
N#Cc1ncc(N2C(=O)C3(CCC3)N(c3ccc(C(=O)NCc4cnccn4)c(F)c3)C2=S)cc1C(F)(F)F [Compound 290, 4-(7-(6-Cyano-5-(trifluoromethyl)pyridin-3-yl)-8-oxo-6-thioxo-5,7-diazaspiro[3.4]octan-5-yl)-2-fluoro-N-(pyrazin-2-ylmethyl)benzamide]	< 1	No (Agonist defined as a compound whose Emax in the ARVP16 DNA Binding Assay (Agonist mode) is >20x DMSO control)
CNC(=O)c1ccc(N2C(=S)N(c3cnc(C#N)c(C)c3)C(=O)C23CCCC3)cc1F [Compound 6, 4-(3-(6-Cyano-5-methylpyridin-3-yl)-4-oxo-2-thioxo-1,3-diazaspiro[4.4]nonan-1-yl)-2-fluoro-N-methylbenzamide]	< 1	No (Agonist defined as a compound whose Emax in the ARVP16 DNA Binding Assay (Agonist mode) is >20x DMSO control)
N#Cc1ncc(N2C(=O)C3(CCC3)N(c3ccc(OCCN4CCCCC4)cc3F)C2=S)cc1C(F)(F)F [Compound 187, 5-(5-(2-Fluoro-4-(2-(piperidin-1-yl)ethoxy)phenyl)-8-oxo-6-thioxo-5,7-diazaspiro[3.4]octan-7-yl)-3-(trifluoromethyl)picolinonitrile]	< 1	No (Agonist defined as a compound whose Emax in the ARVP16 DNA Binding Assay (Agonist mode) is >20x DMSO control)
N#Cc1ncc(N2C(=O)C3(CCC3)N(c3ccc(F)c(OCCc4ccncc4)c3)C2=S)cc1C(F)(F)F [Compound 160, 5-(5-(4-Fluoro-3-(2-(pyridin-4-yl)ethoxy)phenyl)-8-oxo-6-thioxo-5,7-diazaspiro[3.4]octan-7-yl)-3-(trifluoromethyl)picolinonitrile]	> 1	No (Agonist defined as a compound whose Emax in the ARVP16 DNA Binding Assay (Agonist mode) is >20x DMSO control)
CNC(=O)c1ccc(N2C(=S)N(c3cnc(C#N)c(OC)c3)C(=O)C23CCC3)cc1F [Compound 60, 4-(7-(6-Cyano-5-methoxypyridin-3-yl)-8-oxo-6-thioxo-5,7-diazaspiro[3.4]octan-5-yl)-2-fluoro-N-methylbenzamide]	< 1	Yes (Agonist defined as a compound whose Emax in the ARVP16 DNA Binding Assay (Agonist mode) is >20x DMSO control)
N#Cc1ncc(N2C(=O)C3(CCC3)N(c3ccc(C(=O)NCCc4ccccn4)c(F)c3)C2=S)cc1C(F)(F)F [Compound 236, 4-(7-(6-Cyano-5-(trifluoromethyl)pyridin-3-yl)-8-oxo-6-thioxo-5,7-diazaspiro[3.4]octan-5-yl)-2-fluoro-N-(2-(pyridin-2-yl)ethyl)benzamide]	< 1	No (Agonist defined as a compound whose Emax in the ARVP16 DNA Binding Assay (Agonist mode) is >20x DMSO control)
Cc1ccc(N2C(=S)N(c3cnc(C#N)c(C(F)(F)F)c3)C(=O)C23CCC3)cc1 [Compound 22, 5-(8-Oxo-6-thioxo-5-(p-tolyl)-5,7-diazaspiro[3.4]octan-7-yl)-3-(trifluoromethyl)picolinonitrile]	< 1	No (Agonist defined as a compound whose Emax in the ARVP16 DNA Binding Assay (Agonist mode) is >20x DMSO control)
N#Cc1ncc(N2C(=O)C3(CCC3)N(c3ccc(OCCN4CCS(=O)(=O)CC4)c(F)c3)C2=S)cc1C(F)(F)F [Compound 186, 5-(5-(4-(2-(1,1-Dioxidothiomorpholino)ethoxy)-3-fluorophenyl)-8-oxo-6-thioxo-5,7-diazaspiro[3.4]octan-7-yl)-3-(trifluoromethyl)picolinonitrile]	< 1	Yes (Agonist defined as a compound whose Emax in the ARVP16 DNA Binding Assay (Agonist mode) is >20x DMSO control)
N#Cc1ncc(N2C(=O)C3(CCC3)N(c3ccc(C(=O)NCc4cccc(Cl)c4)c(F)c3)C2=S)cc1C(F)(F)F [Compound 288, N-(3-Chlorobenzyl)-4-(7-(6-cyano-5-(trifluoromethyl)pyridin-3-yl)-8-oxo-6-thioxo-5,7-diazaspiro[3.4]octan-5-yl)-2-fluorobenzamide]	< 1	No (Agonist defined as a compound whose Emax in the ARVP16 DNA Binding Assay (Agonist mode) is >20x DMSO control)
Cc1cc(N2C(=O)C3(CCC3)N(c3ccc(OCCO)cc3)C2=S)cnc1C#N [Compound 223, 5-(5-(4-(2-Hydroxyethoxy)phenyl)-8-oxo-6-thioxo-5,7-diazaspiro[3.4]octan-7-yl)-3-methylpicolinonitrile]	< 1	No (Agonist defined as a compound whose Emax in the ARVP16 DNA Binding Assay (Agonist mode) is >20x DMSO control)
N#Cc1ncc(N2C(=O)C3(CCC3)N(c3ccc(F)c(OCCN4CCOCC4)c3)C2=S)cc1C(F)(F)F [Compound 164, 5-(5-(4-Fluoro-3-(2-morpholinoethoxy)phenyl)-8-oxo-6-thioxo-5,7-diazaspiro[3.4]octan-7-yl)-3-(trifluoromethyl)picolinonitrile]	> 1	No (Agonist defined as a compound whose Emax in the ARVP16 DNA Binding Assay (Agonist mode) is >20x DMSO control)
Cc1ccc(CCN2C(=S)N(c3cnc(C#N)c(C(F)(F)F)c3)C(=O)C23CCC3)cc1 [Compound 85, 5-(5-(4-Methylphenethyl)-8-oxo-6-thioxo-5,7-diazaspiro[3.4]octan-7-yl)-3-(trifluoromethyl)picolinonitrile]	< 1	Yes (Agonist defined as a compound whose Emax in the ARVP16 DNA Binding Assay (Agonist mode) is >20x DMSO control)
N#Cc1ncc(N2C(=O)C3(CCC3)N(c3ccc(OCCC[S+]([O-])CCCC(F)(F)C(F)(F)F)c(F)c3)C2=S)cc1C(F)(F)F (stereo not shown) [Compound 154, 5-(5-(3-Fluoro-4-(3-((4,4,5,5,5-pentafluoropentyl)sulfinyl)propoxy)phenyl)-8-oxo-6-thioxo-5,7-diazaspiro[3.4]octan-7-yl)-3-(trifluoromethyl)picolinonitrile]	< 1	No (Agonist defined as a compound whose Emax in the ARVP16 DNA Binding Assay (Agonist mode) is >20x DMSO control)
CCN1CCC(Oc2ccc(N3C(=S)N(c4cnc(C#N)c(C)c4)C(=O)C34CCC4)cc2)CC1 [Compound 216, 5-(5-(4-((1-Ethylpiperidin-4-yl)oxy)phenyl)-8-oxo-6-thioxo-5,7-diazaspiro[3.4]octan-7-yl)-3-methylpicolinonitrile]	> 1	No (Agonist defined as a compound whose Emax in the ARVP16 DNA Binding Assay (Agonist mode) is >20x DMSO control)
